Data from patent publication US20210045385A1, “PYRIDAZINONE-SUBSTITUTED KETOXIMES AS HERBICIDES” (FMC Corporation, priority 2018, published 2021).

Tests used:
Format in all cases: in vivo
[1] = test system: Italian ryegrass (Lolium multiflorum); test: Test A preemergence, visual plant response rating; settings: for Ryegrass, Italian plant response rating (0 to 100 scale): approx. 10 days
How it was run: (§1)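 Greenhouse pot test in loam–sand soil mix: compound in a surfactant-containing non-phytotoxic solvent applied preemergence (directed soil spray) or postemergence (one- to two-leaf plants, 2–10 cm). Injury scored visually after ~10 days, 0–100.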

[2] = test system: barnyardgrass (Echinochloa crus-galli); test: Test A preemergence, visual plant response rating; settings: for Barnyardgrass plant response rating (0 to 100 scale): approx. 10 days
How it was run: as §1

[3] = test system: pigweed (Amaranthus retroflexus); test: Test A preemergence, visual plant response rating; settings: for Pigweed plant response rating (0 to 100 scale): approx. 10 days
How it was run: as §1

[4] = test system: kochia (Kochia scoparia); test: Test A preemergence, visual plant response rating; settings: for Kochia plant response rating (0 to 100 scale): approx. 10 days
How it was run: as §1

[5] = test system: ragweed (common ragweed, Ambrosia elatior); test: Test A preemergence, visual plant response rating; settings: for Ragweed plant response rating (0 to 100 scale): approx. 10 days
How it was run: as §1

[6] = test system: foxtail, green (green foxtail, Setaria viridis); test: Test A preemergence, visual plant response rating; settings: for Foxtail, Green plant response rating (0 to 100 scale): approx. 10 days
How it was run: as §1

[7] = test system: Italian ryegrass (Lolium multiflorum); test: Test A postemergence, visual plant response rating; settings: for Ryegrass, Italian plant response rating: 125 g ai/ha, 0 to 100 scale (0 no effect, 100 complete control)
How it was run: as §1

[8] = test system: corn (Zea mays); test: Test A postemergence, visual plant response rating; settings: for Corn plant response rating (0 to 100 scale): 500 g ai/ha, postemergence, 0 is no effect, 100 is complete control; for Corn plant response rating: Postemergence, 125 g ai/ha, 0 to 100 scale (0 no effect, 100 complete control)
How it was run: as §1

[9] = test system: galium (catchweed bedstraw, Galium aparine); test: Test A postemergence, visual plant response rating; settings: for Galium plant response rating (0 to 100 scale): 500 g ai/ha, postemergence, 0 is no effect, 100 is complete control; for Galium plant response rating: Postemergence, 125 g ai/ha, 0 to 100 scale (0 no effect, 100 complete control)
How it was run: as §1

[10] = test system: barnyardgrass (Echinochloa crus-galli); test: Test A postemergence, visual plant response rating; settings: for Barnyardgrass plant response rating (0 to 100 scale): 500 g ai/ha, postemergence, 0 is no effect, 100 is complete control; for Barnyardgrass plant response rating: Postemergence, 125 g ai/ha, 0 to 100 scale (0 no effect, 100 complete control)
How it was run: as §1

[11] = test system: pigweed (Amaranthus retroflexus); test: Test A postemergence, visual plant response rating; settings: for Pigweed plant response rating (0 to 100 scale): 500 g ai/ha, postemergence, 0 is no effect, 100 is complete control; for Pigweed plant response rating: Postemergence, 125 g ai/ha, 0 to 100 scale (0 no effect, 100 complete control)
How it was run: as §1

[12] = test system: blackgrass (Alopecurus myosuroides); test: Test A postemergence, visual plant response rating; settings: for Blackgrass plant response rating (0 to 100 scale): 500 g ai/ha, postemergence, 0 is no effect, 100 is complete control; for Blackgrass plant response rating: Postemergence, 125 g ai/ha, 0 to 100 scale (0 no effect, 100 complete control)
How it was run: as §1

[13] = test system: kochia (Kochia scoparia); test: Test A postemergence, visual plant response rating; settings: for Kochia plant response rating (0 to 100 scale): 500 g ai/ha, postemergence, 0 is no effect, 100 is complete control; for Kochia plant response rating: Postemergence, 125 g ai/ha, 0 to 100 scale (0 no effect, 100 complete control)
How it was run: as §1

[14] = test system: ragweed (common ragweed, Ambrosia elatior); test: Test A postemergence, visual plant response rating; settings: for Ragweed plant response rating (0 to 100 scale): 500 g ai/ha, postemergence, 0 is no effect, 100 is complete control; for Ragweed plant response rating: Postemergence, 125 g ai/ha, 0 to 100 scale (0 no effect, 100 complete control)
How it was run: as §1

[15] = test system: wheat (Triticum aestivum); test: Test A postemergence, visual plant response rating; settings: for Wheat plant response rating: 0 to 100 scale (0 no effect, 100 complete control)
How it was run: as §1

[16] = test system: foxtail, green (green foxtail, Setaria viridis); test: Test A postemergence, visual plant response rating; settings: for Foxtail, Green plant response rating (0 to 100 scale): 500 g ai/ha, postemergence, 0 is no effect, 100 is complete control; for Foxtail, Green plant response rating: Postemergence, 125 g ai/ha, 0 to 100 scale (0 no effect, 100 complete control)
How it was run: as §1

[17] = test system: sedge, umbrella (small-flower umbrella sedge, Cyperus difformis); test: Test B flooded paddy test, visual plant response rating; settings: 250 g ai/ha, Flood, applied to paddy water, 2-leaf stage, evaluated after 13 to 15 days
How it was run: (§2)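 Plants were raised to the 2-leaf stage, then pots were flooded to 3 cm above the soil and test compound was applied directly into the paddy water. Water depth was held for the whole test; after 13 to 15 days in a greenhouse, responses were scored visually against controls.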

[18] = test system: rice (Oryza sativa); test: as above; settings: 250 g ai/ha, Flood, applied to paddy water, 2-leaf stage, evaluated after 13 to 15 days
How it was run: as §2

[19] = test system: barnyardgrass (Echinochloa crus-galli); test: as above; settings: 250 g ai/ha, Flood, applied to paddy water, 2-leaf stage, evaluated after 13 to 15 days
How it was run: as §2

[20] = test system: ducksalad (Heteranhera limosa); test: as above; settings: 250 g ai/ha, Flood, applied to paddy water, 2-leaf stage, evaluated after 13 to 15 days
How it was run: as §2

[21] = 500 g ai/ha, postemergence, 0 is no effect, 100 is complete control
[22] = 125 g ai/ha, preemergence, 0 to 100 scale, 0 no effect, 100 complete control

Row | Compound | Ryegrass, Italian plant response rating (0 to 100 scale) ([1]; 500 g ai/ha Preemergence) | Barnyardgrass plant response rating (0 to 100 scale) ([2]; 500 g ai/ha Preemergence) | Pigweed plant response rating (0 to 100 scale) ([3]; 500 g ai/ha Preemergence) | Kochia plant response rating (0 to 100 scale) ([4]; 500 g ai/ha Preemergence) | Ragweed plant response rating (0 to 100 scale) ([5]; 500 g ai/ha Preemergence) | Foxtail, Green plant response rating (0 to 100 scale) ([6]; 500 g ai/ha Preemergence) | Ryegrass, Italian plant response rating (0 to 100 scale) [7, 21] | Corn plant response rating (0 to 100 scale) [8] | Corn plant response rating [8] | Galium plant response rating (0 to 100 scale) [9] | Galium plant response rating [9] | Barnyardgrass plant response rating (0 to 100 scale) [10] | Barnyardgrass plant response rating [10] | Pigweed plant response rating (0 to 100 scale) [11] | Pigweed plant response rating [11] | Blackgrass plant response rating (0 to 100 scale) [12] | Blackgrass plant response rating [12] | Kochia plant response rating (0 to 100 scale) [13] | Kochia plant response rating [13] | Ragweed plant response rating (0 to 100 scale) [14] | also measured
1 | CCn1nc(C)c(O)c(C(=NOC)c2cccc(Cl)c2)c1=O (mixture of isomers) [Compound 2] | 60 | 50 | 0 | 0 | 0 | 50 | 80 | 0 | 0 | 30 | 10 | 30 | 0 | 10 | 0 | 20 | 0 | 20 | 10 | 20 | Ryegrass, Italian plant response rating (0 to 100 scale) ([1]; 125 g ai/ha Preemergence): 20; Barnyardgrass plant response rating (0 to 100 scale) ([2]; 125 g ai/ha Preemergence): 0; Pigweed plant response rating (0 to 100 scale) ([3]; 125 g ai/ha Preemergence): 0; Kochia plant response rating (0 to 100 scale) ([4]; 125 g ai/ha Preemergence): 0; Ragweed plant response rating (0 to 100 scale) ([5]; 125 g ai/ha Preemergence): 0; Foxtail, Green plant response rating (0 to 100 scale) ([6]; 125 g ai/ha Preemergence): 0; Ryegrass, Italian plant response rating ([7]; Postemergence): 20; Ragweed plant response rating [14]: 10; Wheat plant response rating (0 to 100 scale) [15, 21]: 10; Wheat plant response rating ([15]; Postemergence, 125 g ai/ha): 10; Foxtail, Green plant response rating (0 to 100 scale) [16]: 20; Foxtail, Green plant response rating [16]: 0; Plant response rating, Sedge, Umbrella (0 to 100 scale, 0 is no effect, 100 is complete control) [17]: 0; Plant response rating, Rice (0 to 100 scale, 0 is no effect, 100 is complete control) [18]: 0; Plant response rating, Barnyardgrass (0 to 100 scale, 0 is no effect, 100 is complete control) [19]: 0; Plant response rating, Ducksalad (0 to 100 scale, 0 is no effect, 100 is complete control) [20]: 0
2 | CON=C(c1cccc(Cl)c1)c1c(O)c(C)n[nH]c1=O (mixture of isomers) [Compound 143] | 50 | 30 | 0 | 10 | 0 | 80 | 60 | 20 | 0 | 0 | 0 | 40 | 10 | 20 | 0 | 40 | 10 | 20 | 0 | 0 | Ryegrass, Italian plant response rating [1, 22]: 20; Barnyardgrass plant response rating [2, 22]: 0; Pigweed plant response rating [3, 22]: 0; Kochia plant response rating [4, 22]: 0; Ragweed plant response rating [5, 22]: 0; Foxtail, Green plant response rating [6, 22]: 30; Ryegrass, Italian plant response rating (0 to 100 scale) ([7]; Postemergence, rate not given, approx. 10 days): 20; Ragweed plant response rating [14]: 0; Wheat plant response rating ([15]; Postemergence, 500 g ai/ha): 20; Wheat plant response rating (0 to 100 scale) ([15]; Postemergence, approx. 10 days): 0; Foxtail, Green plant response rating (0 to 100 scale) [16]: 40; Foxtail, Green plant response rating [16]: 20; Plant response rating, Sedge, Umbrella (0 to 100 scale, 0 is no effect, 100 is complete control) [17]: 0; Plant response rating, Rice (0 to 100 scale, 0 is no effect, 100 is complete control) [18]: 0; Plant response rating, Barnyardgrass (0 to 100 scale, 0 is no effect, 100 is complete control) [19]: 0; Plant response rating, Ducksalad (0 to 100 scale, 0 is no effect, 100 is complete control) [20]: 0
3 | CON=C(c1ccccc1Cl)c1c(O)c(C)nn(C)c1=O (stereo in doubt) [Compound 29] | 70 | 50 | 20 | 10 | 90 | 50 | 90 | 10 | 0 | 80 | 70 | 20 | 0 | 50 | 40 | 70 | 20 | 30 | 10 | 70 | Ryegrass, Italian plant response rating (0 to 100 scale) ([1]; 125 g ai/ha Preemergence): 20; Barnyardgrass plant response rating (0 to 100 scale) ([2]; 125 g ai/ha Preemergence): 30; Pigweed plant response rating (0 to 100 scale) ([3]; 125 g ai/ha Preemergence): 0; Kochia plant response rating (0 to 100 scale) ([4]; 125 g ai/ha Preemergence): 0; Ragweed plant response rating (0 to 100 scale) ([5]; 125 g ai/ha Preemergence): 30; Foxtail, Green plant response rating (0 to 100 scale) ([6]; 125 g ai/ha Preemergence): 30; Ryegrass, Italian plant response rating ([7]; Postemergence): 30; Ragweed plant response rating [14]: 60; Wheat plant response rating (0 to 100 scale) [15, 21]: 20; Wheat plant response rating ([15]; Postemergence, 125 g ai/ha): 20; Foxtail, Green plant response rating (0 to 100 scale) [16]: 20; Foxtail, Green plant response rating [16]: 0; Plant response rating, Sedge, Umbrella (0 to 100 scale, 0 is no effect, 100 is complete control) [17]: 0; Plant response rating, Rice (0 to 100 scale, 0 is no effect, 100 is complete control) [18]: 0; Plant response rating, Barnyardgrass (0 to 100 scale, 0 is no effect, 100 is complete control) [19]: 0; Plant response rating, Ducksalad (0 to 100 scale, 0 is no effect, 100 is complete control) [20]: 0
4 | CCn1nc(C)c(O)c(/C(=N/OC)c2cccc(C)c2)c1=O [Compound 1] | 40 | 0 | 0 | 0 | 10 | 30 | 20 | 0 | 0 | 30 | 0 | 10 | 0 | 0 | 0 | 20 | 0 | 0 | 0 | 0 | Ryegrass, Italian plant response rating (0 to 100 scale) ([1]; 125 g ai/ha Preemergence): 0; Barnyardgrass plant response rating (0 to 100 scale) ([2]; 125 g ai/ha Preemergence): 0; Pigweed plant response rating (0 to 100 scale) ([3]; 125 g ai/ha Preemergence): 0; Kochia plant response rating (0 to 100 scale) ([4]; 125 g ai/ha Preemergence): 0; Ragweed plant response rating (0 to 100 scale) ([5]; 125 g ai/ha Preemergence): 0; Foxtail, Green plant response rating (0 to 100 scale) ([6]; 125 g ai/ha Preemergence): 10; Ryegrass, Italian plant response rating ([7]; Postemergence): 0; Ragweed plant response rating [14]: 0; Wheat plant response rating (0 to 100 scale) [15, 21]: 0; Wheat plant response rating ([15]; Postemergence, 125 g ai/ha): 0; Foxtail, Green plant response rating (0 to 100 scale) [16]: 10; Foxtail, Green plant response rating [16]: 0; Plant response rating, Sedge, Umbrella (0 to 100 scale, 0 is no effect, 100 is complete control) [17]: 0; Plant response rating, Rice (0 to 100 scale, 0 is no effect, 100 is complete control) [18]: 0; Plant response rating, Barnyardgrass (0 to 100 scale, 0 is no effect, 100 is complete control) [19]: 0; Plant response rating, Ducksalad (0 to 100 scale, 0 is no effect, 100 is complete control) [20]: 0
